This passage reports Ki and IC50 results from patent US7973078B2, “Sulfonamide compound or salt thereof” (Astellas Pharma Inc., priority 2006, dated 2011).

The target of assay [1] is T1, rat EP1 receptor (Rattus norvegicus, UniProt P70597).
T1 sequence (P70597 1-405): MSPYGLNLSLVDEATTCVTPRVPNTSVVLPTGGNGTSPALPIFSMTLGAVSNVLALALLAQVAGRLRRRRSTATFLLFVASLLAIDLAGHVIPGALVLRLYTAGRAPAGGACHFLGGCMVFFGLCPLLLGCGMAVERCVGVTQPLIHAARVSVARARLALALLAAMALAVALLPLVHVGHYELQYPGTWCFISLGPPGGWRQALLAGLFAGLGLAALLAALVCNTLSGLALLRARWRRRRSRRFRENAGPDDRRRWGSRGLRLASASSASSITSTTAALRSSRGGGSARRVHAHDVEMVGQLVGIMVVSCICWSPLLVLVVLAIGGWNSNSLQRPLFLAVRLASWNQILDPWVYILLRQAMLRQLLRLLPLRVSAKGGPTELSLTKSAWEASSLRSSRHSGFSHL
As to the kind of experiment: Receptor binding test using EP1 receptor-expressing cells (3H-PGE2 binding to membrane sample). Details: expressed in transfected cells; host or cells: HEK293EBNA cells, pCEP4 vector, transient (2 days); crude membrane sample. To be noted: membrane of HEK293EBNA cells expressing rat EP1; 2.5 nM 3H-PGE2; Ki=IC50/(1+([C]/Kd)). An excerpt:
(2) Receptor Binding Test Using EP1 Receptor-Expressing Cells
A signal peptide (MKTIIALSYIFCLVFA: SEQ ID NO: 1) and a FLAG sequence (DYKDDDDK: SEQ ID NO: 2) were introduced at the N-terminus of a rat EP1 receptor, followed by subcloning into an expression vector (Product Name: pCEP4, Invitrogen Corporation). An HEK293EBNA cell (American Type Culture Collection) was transfected with the rat EP1 expression vector using a transfection regent (Product Name: Fugene-6, Roche-Diagnostics, K.K), and then cultured for 2 days in a medium containing 10% FBS (Product Name: DMEM, Invitrogen Corporation) at 37° C. under 5% CO2. After culturing, the cells were recovered, treated with a cell lysate (20 mM Tris(hydroxymethyl)aminomethane (Tris)buffer pH7.5, 5 mM ethylene diaminetetraacetic acid(EDTA)), and ultracentrifuged (23,000 revolution, 25 minutes×2) for a rough preparation of a membrane sample.
A reaction solution containing the prepared membrane sample (15 μg) and ^3H-PGE2 (150 μl, composition: 10 mM 2-(N-morpholino)ethanesulfonic acid (MES)/potassium hydroxide(KOH) pH6.0, 1 mM EDTA, 10 mM magnesium chloride (MgCl2), 0.02% 3-[(3-Cholamidopropyl)dimethylammonio] propanesulfonate (CHAPS)) was incubated at room temperature for 1 hour. The reaction was terminated with an ice-cooled buffer, and suction-filtered under reduced pressure to trap the bound ^3H-PGE2 to a glass fiber filter (Product Name: UNIFILTER-96, GF/B, PerkinElmer Japan Co., Ltd.), so as to measure the radioactivity of the binding with a microplate scintillation counter (Product Name: TopCount, Packard) using Microscinti (Product Name: Microscinti 20, PerkElmer Japan Co., Ltd.).
The dissociation constant (Kd) and the maximum binding (Bmax) were determined using Scatchard plot (Annals of the New York Academy of Science, US, volume 51, page 660, 1949). Nonspecific bindings were determined as bindings in the presence of an excessive amount (2.5 μM) of label-free PGE2. The assessment of inhibitory effect on ^3H-PGE2 binding by the compound was carried out by adding 2.5 nM ^3H-PGE2 and the compound.
The inhibition constant Ki(nM) for each compound was obtained using the following formula: Ki=IC50/(1+([C]/Kd))
wherein [C] represents the concentration of ^3H-PGE2 employed in a reaction system.

The target of assay [2] is T1, rat EP1 receptor. As to the kind of experiment: Receptor antagonistic activity using cells expressing an EP1 receptor (PGE2-induced intracellular Ca change, FLIPR). To be noted: HEK293 cells stably expressing rat EP1 receptors; 100 nM PGE2; Ca concentration in cells. In kind it is cell-based. The protocol: 1. Experiment to Measure a Receptor Antagonistic Activity Using Cells Expressing an EP1 Receptor
HEK293 cells (American Type Culture Collection) that stably expressed rat EP1 receptors were dispensed onto a 96-well poly-D-lysine-coated plate (Product Name: Biocoat, PDL96W black/clear, Nippon Becton Dickinson) to a 2×10^4 cells/well at the day before the experiment, and incubated overnight at 37° C. under 5% carbon dioxide (CO2) in a culture medium containing 10% fetal bovine serum (FBS) (Product Name: DMEM, Invitrogen Corporation). The culture medium was replaced by a loading buffer (a washing solution containing a 4 μM fluorescent indicator (Product Name: Fluo3-AM, Tong Ren Tang Technologies Co. Ltd.):a Hank's balanced salt solution)(HBSS), 20 mM 2-[4-(2-hydroxyethyl)-1-piperazinyl]ethanesulfonic acid (HEPES)-sodium hydroxide (NaOH), 2.5 mM Probenecid, 0.1% bovine serum albumin (BSA)), and left to stand at room temperature for 3 hours, and the cells were washed using a plate washer in which a washing solution had been set up (Product Name: ELx405, BIO-TEK instrument Corporation). The compound that had been preliminarily dissolved and diluted in a washing solution was added thereto, and set up in a system for measuring a calcium (Ca) concentration in a cell (Product Name: FLIPR, Molecular Devices Corporation). After 5 minutes, PGE2 was added to a final concentration of 100 nM, and the change in Ca concentrations in cells was measured. A difference between a maximum value and a minimum value in Ca concentrations in cells was determined, and kept as measurement data. With a response upon addition of 100 nM PGE2 being set at […], and a response upon addition of a buffer being set at 100%, the concentration causing 50% inhibition was determined as an IC50 value.
In the table, Pre represents Preparative Example No. as described later, and Ex represent Example No. as described later.

For orientation: Ki means the equilibrium dissociation constant of an inhibitor or competing ligand from its target. The low end stands for higher affinity, the high end for lower affinity. As a reminder, the IC50 is the concentration at which inhibition is half-maximal. In the case of `Cc1ccc(S(=O)(=O)N(CC(=O)NCc2cccc(C(=O)O)c2)c2cccc(Cl)c2C)cc1` [Ex7], the affinity on rat EP1 receptor [1], expressed as Ki, was 0.57 nM. This compound displayed an IC50 on rat EP1 receptor [2] of 1.6 nM.
As to `Cc1ccc(S(=O)(=O)N(CC(=O)NCc2cccc(OCC(=O)O)c2)c2cccc(Cl)c2C)cc1` [Ex16], on rat EP1 receptor [1], affinity was put at a Ki of 1 nM. At rat EP1 receptor [2], 2.4 nM corresponded to half-maximal inhibition (IC50).
`Cc1ccc(S(=O)(=O)N(CC(=O)NCc2ccc(C(=O)NS(C)(=O)=O)cc2)c2cccc(Cl)c2C)cc1` [Ex20] yielded a Ki at rat EP1 receptor [1] of 0.74 nM. Also, at rat EP1 receptor [2], the midpoint of inhibition, the IC50, lay at 1.4 nM.
Compound `COC(=O)c1ccc(CNC(=O)CN(c2cccc(Cl)c2C)S(=O)(=O)c2ccc(C)cc2)cc1` [Ex24] gave a half-inhibitory concentration (IC50) against rat EP1 receptor [2] of 1 nM.
Compound `Cc1ccc(S(=O)(=O)N(CC(=O)NCc2ccc(-n3cccn3)cc2)c2cccc(Cl)c2C)cc1` [Ex26] gave an IC50 on rat EP1 receptor [2] of 2.5 nM.
On rat EP1 receptor [1], `COc1c(Cl)cccc1N(CC(=O)NCc1cccc(C(=O)O)c1)S(=O)(=O)c1ccc(C)cc1` [Ex38] gave an inhibition constant Ki of 0.48 nM. Moreover, inhibition against rat EP1 receptor [2] was half-maximal at 1.5 nM (IC50).
In the case of `CCc1c(Cl)cccc1N(CC(=O)NCc1cccc(C(=O)O)c1)S(=O)(=O)c1ccc(C)cc1` [Ex40], the Ki at rat EP1 receptor [1] came out at 0.33 nM. The compound further came in with a 50% inhibitory concentration (IC50) on rat EP1 receptor [2] of 0.72 nM.
On to `CCc1c(Cl)cccc1N(CC(=O)NCc1cccc(/C=C/C(=O)O)c1)S(=O)(=O)c1ccc(C)cc1` [Ex74], for which the Ki at rat EP1 receptor [1] amounted to 0.35 nM. In addition, inhibition against rat EP1 receptor [2] was half-maximal at 1 nM (IC50).
On to `COc1ccc(CNC(=O)CN(c2cccc(Cl)c2C)S(=O)(=O)c2ccc(C)cc2)cc1` [Pre1, N^2-(3-chloro-2-methylphenyl)-N-(4-methoxybenzyl)-N^2-[(4-methylphenyl)sulfonyl] glycinamide], for which, on rat EP1 receptor [1], affinity was put at a Ki of 0.68 nM. Also, the IC50 at rat EP1 receptor [2] was found to be 16 nM.
On rat EP1 receptor [2], `Cc1ccc(S(=O)(=O)N(CC(=O)NCc2ccncn2)c2cccc(Cl)c2C)cc1` [Pre15] showed a half-maximal inhibitory concentration (IC50) of 12 nM.
